Where only a bound is given, the exact number is not on record here.

Assay [1] has as its system Helicobacter pylori ATCC 43504. The assay is described as follows: MIC, agar plating dilution (standard method of Japanese Chemotherapy Academy). Type of assay: cell-based. The conditions noted are these: Objected Strain 1: Helicobacter pylori ATCC 43504. The gist of the method:
(§1)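 Agar dilution MIC followed the Japanese Chemotherapy Academy standard method, on Brain Heart Infusion agar with 0.1% cyclodextrin and compounds dissolved in DMSO. Plates were incubated microaerobically at 37 °C for three days.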

Assay [2] deals with Helicobacter pylori ATCC 43629. The assay is described as above. Type of assay: cell-based. The settings on record: Objected Strain 2: Helicobacter pylori ATCC 43629. The method, boiled down: as §1
Assay [3] relates to Escherichia coli NIH JC-2. The assay is described as follows: MIC, standard method of Japanese Chemotherapy Academy. The conditions noted are these: Objected Strain 3: Escherichia coli NIH JC-2. In kind it is cell-based. As to the method:
(§2) 1. Minimum Inhibitory Concentration (MIC) was measured in accordance with the standard method of Japanese Chemotherapy Academy (Chemotherapy, 29: 76-79, 1981).

For assay [4], the system named is Helicobacter pylori No. 19. The experiment in a line: MIC, agar plating dilution, clinical segregation strain. Type of assay: cell-based. The conditions noted are these: Strain 8: Helicobacter pylori No. 19. The gist of the method:
(§3)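 Agar plate dilution per Japanese Chemotherapy Society standard method, with compounds from DMSO solutions mixed into Brain Heart Infusion agar containing 0.1% cyclodextrin. Plates were read after 3 days at 37 °C under microaerobic conditions.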

Assay [5] concerns Helicobacter pylori No. 1. Described as above. In kind it is cell-based. The settings on record: Strain 4: Helicobacter pylori No. 1. The method, boiled down: as §3
Assay [6] concerns Helicobacter pylori No. 20. The assay is described as above. Type of assay: cell-based. The conditions noted are these: Strain 9: Helicobacter pylori No. 20. The gist of the method: as §3
Assay [7] has as its system Helicobacter pylori No. 28. The assay is described as above. Type of assay: cell-based. The conditions noted are these: Strain 10: Helicobacter pylori No. 28. The method, boiled down:
as §3

Assay [8] has as its system Helicobacter pylori No. 2. Described as above. The settings on record: Strain 5: Helicobacter pylori No. 2. In kind it is cell-based. The method, boiled down: as §3
Assay [9] has as its system Helicobacter pylori No. 3. Described as above. The settings on record: Strain 6: Helicobacter pylori No. 3. In kind it is cell-based. The gist of the method: as §3
Assay [10] deals with Helicobacter pylori No. 4. Described as above. Type of assay: cell-based. The conditions noted are these: Strain 7: Helicobacter pylori No. 4. The method, boiled down: as §3
Assay [11] has as its system Bacillus subtilis ATCC 6633. The experiment in a line: MIC, standard method of Japanese Chemotherapy Academy. In kind it is cell-based. The method, then: as §2
(§4) And MIC of the compounds of Example 3, 36, 8, 14, 17, 21, 41 and 45 were measured.

The subject of assay [12] is Staphylococcus aureus 209PJC. The description is as above. In kind it is cell-based. The conditions noted are these: Strain 11: Staphylococcus aureus 209PJC. The method, then: as §2, §4
Assay [13] concerns Staphylococcus aureus ATCC 6538. The assay is described as above. Type of assay: cell-based. The conditions noted are these: Strain 12: Staphylococcus aureus ATCC 6538. As to the method: as §2, §4
The test system of assay [14] is Staphylococcus aureus No. 2 (MRSA). The description is as above. The settings on record: Strain 14: Staphylococcus aureus No. 2 (MRSA). Type of assay: cell-based. As to the method:
as §2, §4

Assay [15] concerns Helicobacter pylori ATCC 43504. The experiment in a line: MIC and MBC, liquid medium dilution. The conditions noted are these: Objected Strain 1: Helicobacter pylori ATCC 43504. Type of assay: cell-based. The method, then: (§5) 2. Minimum Inhibitory Concentration (MIC) and Minimum Bacteria sterilizeory Concentration (MBC) against helicobacter pylon were measured in accordance with the liquid medium dilution. […] And […] of helicobacter pylon bacterial solution, which was cultured at 37° C. for three days and then diluted and prepared with the above mentioned liquid medium, was added to the mixtures to adjust the volume to 105 CFU/ml. […] After they were cultured by the same method as above mentioned, minimum concentration of the compounds which were not recognized the growth with the naked eyes were measured as the values of MBC.

Assay [16] relates to Helicobacter pylori ATCC 43629. The experiment in a line: MIC and MBC, liquid medium dilution. In kind it is cell-based. The conditions noted are these: Objected Strain 2: Helicobacter pylori ATCC 43629. The method, then: as §5
The test system of assay [17] is Helicobacter pylori No. 1. The experiment in a line: MIC and MBC, liquid medium dilution. In kind it is cell-based. The settings on record: Objected Strain 4: Helicobacter pylori No. 1. The method, then: as §5
The subject of assay [18] is Helicobacter pylori No. 2. The experiment in a line: MIC and MBC, liquid medium dilution. Type of assay: cell-based. The conditions noted are these: Objected Strain 5: Helicobacter pylori No. 2. As to the method: as §5
Assay [19] has as its system Helicobacter pylori No. 3. The assay is described as follows: MIC and MBC, liquid medium dilution. In kind it is cell-based. The settings on record: Objected Strain 6: Helicobacter pylori No. 3. The method, then:
as §5

In assay [20] the test system is Helicobacter pylori No. 4. The assay is described as follows: MIC and MBC, liquid medium dilution. The conditions noted are these: Objected Strain 7: Helicobacter pylori No. 4. Type of assay: cell-based. As to the method:
as §5

In assay [21] the test system is ethanol hydrochloride ulceration. The conditions noted are these: against an ethanol hydrochloride ulceration; cited from earlier work.
Assay [22] relates to helicobacter pylori. The assay is described as follows: MIC of benexart hydrochloride, for reference. In kind it is cell-based. The conditions noted are these: strain and medium not given. As to the method:
For reference, the value of MIC of benexart hydrochloride was >100 µg/ml.

Regarding `Cc1ccc(COC(=O)c2ccc(-c3ccc(OC(=O)[C@H]4CC[C@H](CNC(=N)N)CC4)cc3)cc2)cc1.Cl` [Example 14, trans-4-guanidinomethyl cyclohexane carboxylic acid [4-[4-(4-methylbenzyloxy carbonyl)phenyl]phenylester].hydrochloride], the MIC was 0.39 µg/mL in assay [1]; 0.39 µg/mL in assay [2]; above 25 µg/mL in assay [3]; 0.20 µg/mL in [4]; 0.10 µg/mL in assay [5]; 0.39 µg/mL in assay [6]. For the same compound, the MIC is 0.39 µg/mL in assay [7]; 0.39 µg/mL in assay [8]; 0.10 µg/mL in [9]; 0.20 µg/mL in assay [10]; above 25 µg/mL in assay [11] (Strain 13: Bacillus subtilis ATCC 6633); above 25 µg/mL in assay [12]. The MIC in [13] was above 25 µg/mL; in [14], above 25 µg/mL; in assay [15] it was 0.20 µg/mL; in assay [16], 0.39 µg/mL; in [17] it was 0.20 µg/mL; in [18] it was 0.39 µg/mL. Also, the MIC in assay [19] came to 0.10 µg/mL; in assay [20] it was 0.39 µg/mL. The MIC against bacillus subcillus ATCC 6633 in assay [11] (standard method of Japanese Chemotherapy Academy) is above 25 µg/mL. The MBC in assay [15] worked out at 0.20 µg/mL; in assay [16] it was 1.56 µg/mL; in assay [17], 0.20 µg/mL; in assay [18], 1.56 µg/mL; in [19] it was 0.10 µg/mL; in [20] it was 0.39 µg/mL.
For the compound `N=C(N)NCC1CCC(C(=O)Oc2ccc(CCC(=O)NO)cc2)CC1` (centres unmarked) [Formula (XIV)], in [21], the ulceration restraining ratio is given as 88.7%.
As to `Cl.NC(N)=NCC1CCC(C(=O)Oc2ccccc2C(=O)OCc2ccccc2)CC1` (centres unmarked) [benexart hydrochloride], in assay [22], the MIC is above 100 µg/mL.

The values above are taken from patent US6831190B1, “Guanidinomethyl cyclohexane carboxylic acid ester derivatives” (Teikoku Chemical Industries Co., Ltd., priority 1994, dated 2004).
